We go through 18 compounds from patent publication US20240067655A1 (NEURON23, INC., priority 2020, published 2024).

The target in experiment [1] is T1, G2019S human LRRK2, catalytic site (Homo sapiens, UniProt Q5S007, G2019S).
T1 construct: G2019S human LRRK2, catalytic site; purchased ThermoFisher/USA
Kind of experiment: TR-FRET LanthaScreen Eu Kinase Binding Assay, LRRK2 G2019S (Example 72). Conditions: Example 72 text; one statement for LRRK2 (Wt) and LRRK2 (G2019); read-out: IC50, Inhibitory Activity Toward LRRK2 (G2019). The protocol: (§1) The compounds in Tables 5-6 were tested for their inhibitory effect on a set of kinases according to the following procedures.
(§2) The basic protocol for TR-FRET LanthaScreen Eu Kinase Binding Assay inhibitor studies were performed as follows. LanthaScreen Kinase Binding Assays (ThermoFisher/USA) to evaluate inhibitors were performed by addition of 5 μl of test compound in corresponding DMSO dilutions/5 μl of kinase/antibody mixture, 5 μl of tracer into 384 well small volume plates. After incubation for 1 hour at room temperature, plates were read. Data analysis of emission ratios was according to LanthaScreen Eu Kinase Binding Assay protocol.
(§3) Kinase and assay components were adjusted to final concentrations according to the kit protocol. For LRRK2: 5 nM wt human LRRK2, catalytic site, or G2019S human LRRK2, catalytic site (ThermoFisher/USA), 2 nM Eu-Anti-GST Antibody, 10 nM Kinase Tracer 236 in 1× Kinase Buffer A. For NUAK1: 8 nM wt human NUAK1, full length (ThermoFisher/USA), 2 nM Eu-Anti-His Antibody, 5 nM Kinase Tracer 236 in 1× Kinase Buffer A.
On the technique in general: In TR-FRET formats the signal depends on donor and acceptor labels being close together.

Experiment [2] deals with T2, wt human NUAK1, full length (Homo sapiens, UniProt O60285).
T2 construct: 8 nM wt human NUAK1, full length (ThermoFisher/USA); purchased ThermoFisher/USA
T2 sequence (O60285 1-661): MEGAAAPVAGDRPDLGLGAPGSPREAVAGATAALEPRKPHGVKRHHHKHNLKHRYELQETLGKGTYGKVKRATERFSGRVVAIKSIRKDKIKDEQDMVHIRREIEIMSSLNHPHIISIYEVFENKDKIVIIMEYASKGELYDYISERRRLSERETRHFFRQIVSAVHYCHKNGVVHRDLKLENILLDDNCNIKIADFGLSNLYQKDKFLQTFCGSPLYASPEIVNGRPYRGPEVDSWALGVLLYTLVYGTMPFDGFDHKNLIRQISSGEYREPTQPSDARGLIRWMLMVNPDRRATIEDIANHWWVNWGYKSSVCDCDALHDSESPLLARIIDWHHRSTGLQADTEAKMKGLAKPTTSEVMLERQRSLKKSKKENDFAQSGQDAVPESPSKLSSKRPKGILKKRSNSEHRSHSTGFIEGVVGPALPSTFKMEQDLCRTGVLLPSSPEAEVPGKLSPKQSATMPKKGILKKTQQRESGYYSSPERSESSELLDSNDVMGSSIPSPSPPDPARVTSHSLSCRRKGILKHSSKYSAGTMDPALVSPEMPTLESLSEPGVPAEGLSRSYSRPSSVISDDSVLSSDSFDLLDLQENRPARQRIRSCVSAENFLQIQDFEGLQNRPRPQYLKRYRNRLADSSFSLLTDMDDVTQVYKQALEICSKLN
Kind of experiment: TR-FRET LanthaScreen Eu Kinase Binding Assay, NUAK1 (Example 72). Conditions: Example 72 text; read-out: IC50, Inhibitory Activity Toward NUAK1. The protocol:
as §1, §2, §3

The target of experiment [3] is T3, wt human LRRK2, catalytic site (Homo sapiens, UniProt Q5S007).
T3 construct: wt human LRRK2, catalytic site; purchased ThermoFisher/USA
T3 sequence (Q5S007 1879-2138 limits assumed): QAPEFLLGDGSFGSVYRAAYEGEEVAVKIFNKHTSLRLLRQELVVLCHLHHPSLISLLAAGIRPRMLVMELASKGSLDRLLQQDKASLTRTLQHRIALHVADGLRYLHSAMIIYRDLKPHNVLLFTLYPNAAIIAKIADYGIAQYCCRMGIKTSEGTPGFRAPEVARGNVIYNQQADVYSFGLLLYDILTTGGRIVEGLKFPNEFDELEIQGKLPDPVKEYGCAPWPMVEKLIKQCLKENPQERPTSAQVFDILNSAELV
As to the kind of experiment: TR-FRET LanthaScreen Eu Kinase Binding Assay, LRRK2 wt (Example 72). Conditions: Example 72 text; one statement for LRRK2 (Wt) and LRRK2 (G2019); read-out: IC50, Inhibitory Activity Toward LRRK2 (Wt). The protocol: as §1, §2, §3

Experiment [4] deals with T4, wt human TYK2, catalytic site (Homo sapiens, UniProt P29597).
T4 construct: wt human TYK2, catalytic site; purchased SignalChem/CAN
T4 sequence (P29597 897-1176 limits assumed): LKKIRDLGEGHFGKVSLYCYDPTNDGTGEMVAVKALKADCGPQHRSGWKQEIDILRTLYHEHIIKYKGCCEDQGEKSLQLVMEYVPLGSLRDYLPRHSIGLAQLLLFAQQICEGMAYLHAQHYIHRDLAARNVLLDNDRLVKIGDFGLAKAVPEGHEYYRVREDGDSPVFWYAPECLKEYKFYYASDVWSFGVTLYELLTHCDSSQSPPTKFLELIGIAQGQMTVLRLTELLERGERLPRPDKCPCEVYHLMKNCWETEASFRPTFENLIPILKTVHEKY
As to the kind of experiment: HTRF KinEASE assay, TYK2 (Example 72). Conditions: Example 72 text; read-out: IC50, Inhibitory Activity Toward TYK2. Format: biochemical. The protocol: as §1
Basic protocol for HTRF KinEASE assay (Cisbio/FRA) inhibitor studies involved two steps:
Enzymatic step: Addition of 4 μl of test compound in corresponding DMSO dilutions, 4 μl of kinase/substrate mixture, 2 μl of ATP into 384 well small volume plates. Incubation for at least 30 minutes at room temperature.
Detection step: Addition of 5 μl antibody and 5 μl streptavidin-XL665, read plate after 60 minutes. Data analysis of emission ratios according to KinEASE assay protocol.
Kinase and assay components were adjusted to final concentrations according to the kit protocol. For TYK2: 2 nM wt human TYK2, catalytic site (SignalChem/CAN), 1 μM HTRF KinEASE-TK Substrate-biotin, 1 μM ATP in 1× Kinase Buffer

Experiment [5] addresses T3, wt human LRRK2, catalytic site. As to the kind of experiment: TR-FRET LanthaScreen Tb Kinase Activity Assay (Example 71). Format: biochemical. Conditions: compounds of Table 4, 38 uM ATP, method names only wt human LRRK2, read-out: IC50, Inhibitory Activity Toward LRRK2 (Wt) and LRRK2 (G2019). The protocol:
The compounds in Table 4 were tested for their inhibitory effect on LRRK2 kinases according to the following procedures.
The basic protocol for TR-FRET LanthaScreen Tb Kinase Activity Assay inhibitor studies were performed as follows. LanthaScreen Kinase Activity Assays (ThermoFisher/USA) to evaluate inhibitors were performed by addition of 100 nl of test compound in corresponding DMSO dilutions/5 μl of kinase/fluorescein-ERM(LRRKtide) peptide mixture, 5 μl of ATP into 384 well small volume plates. After incubation for 120 minutes at room temperature, the detection reagents containing Tb-anti-pLRRKtide antibody were added to monitor phosphrylation level of peptide. Then, after 60 min minutes incubation at room temperature plates were read in Envision. Data analysis of emission ratios was according to LanthaScreen Tb Kinase Activity Assay protocol.
Kinase and assay components were adjusted to final concentrations according to the kit protocol. For LRRK2: 2 nM wt human LRRK2, catalytic site, catalytic site (ThermoFisher/USA), 400 nM peptide, 38 uM ATP in 1× Kinase Buffer A.
Basic protocol for TR-FRET LanthaScreen Tb Kinase Activity Assay inhibitor studies involved two steps:
Enzymatic step: Addition of 100 nl of test compound in corresponding DMSO dilutions, 5 μl of kinase/substrate mixture, 5 μl of ATP into 384 well small volume plates. Incubation for 120 minutes at room temperature.
Detection step: Addition of 10 μl EDTA & antibody, read plate after 60 minutes. Data analysis of emission ratios according to KinEASE assay protocol.

T1 sequence (Q5S007 1879-2138 G2019S limits assumed): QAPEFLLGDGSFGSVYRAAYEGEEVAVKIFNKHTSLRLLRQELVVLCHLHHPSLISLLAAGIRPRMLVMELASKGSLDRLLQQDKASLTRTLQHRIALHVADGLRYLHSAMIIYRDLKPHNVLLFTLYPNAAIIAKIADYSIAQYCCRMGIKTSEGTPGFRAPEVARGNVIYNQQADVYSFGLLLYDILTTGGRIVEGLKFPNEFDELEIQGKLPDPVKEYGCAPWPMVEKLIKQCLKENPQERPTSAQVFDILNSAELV

Usually IC50 stands for the concentration that inhibits the measured activity by half. In the case of `Fc1cccc(F)c1C1=Nc2c[nH]nc2-c2cccc3ncn1c23` [Compound 301, 3-(2,6-difluorophenyl)-7H-1,2a,4,6,7-pentaazabenzo[cd]cyclopenta[f]azulene], the figures for the IC50 in experiment [1], in experiment [2] and in experiment [3] were < 10 nM, 10 to 100 nM and < 10 nM, respectively.
Regarding `Fc1cccc(F)c1C1=Nc2c[nH]nc2-c2cccc3cnn1c23` [Compound 302, 4-(2,6-difluorophenyl)-8H-pyrazolo[4′,3′:4,5][1,3]diazepino[6,7,1-hi]indazole], the 50% inhibitory concentration (IC50) in experiment [1] and in experiment [3] was < 10 nM throughout.
On to `Fc1cccc(F)c1C1=Nc2cn[nH]c2-c2cccc3nnn1c23` [Compound 304, 3-(2,6-difluorophenyl)-7H-1,2,2a,4,6,7-hexaazabenzo[cd]cyclopenta[f]azulene], for which the IC50 in experiment [1], in experiment [2] and in experiment [3] was 10 to 100 nM throughout.
On to `Fc1cccc(Cl)c1C1=Nc2cn[nH]c2-c2cccc3cnn1c23` [Compound 306, 4-(2-chloro-6-fluorophenyl)-8H-pyrazolo[4′,3′:4,5][1,3]diazepino[6,7,1-hi]indazole], for which the IC50 in experiment [1], in experiment [2] and in experiment [3] was 10 to 100 nM in each case.
As for `Fc1cccc(F)c1C1=Nc2cn[nH]c2-c2nnc3cccn1c2-3` [Compound 307, 9-(2,6-difluorophenyl)-3H-2,3,4,5,8a,10-hexaazabenzo[cd]cyclopenta[h]azulene], the IC50 in experiment [1], in experiment [2] and in experiment [3] was 10 to 100 nM throughout.
With `Fc1cccc(F)c1C1=Nc2cn[nH]c2-c2cnn3c2N1CCC3` [Compound 308, 9-(2,6-difluorophenyl)-3,6,7,8-tetrahydro-2,3,5,5a,8a,10-hexaazabenzo[cd]cyclopenta[h]azulene], the results for the IC50 in experiment [1], in experiment [2] and in experiment [3] were < 10 nM, 10 to 100 nM and < 10 nM, respectively.
For `Clc1cccc(Cl)c1C1=Nc2c[nH]nc2-c2cccc3cnn1c23` [Compound 309, 4-(2,6-dichlorophenyl)-8H-pyrazolo[4′,3′:4,5][1,3]diazepino[6,7,1-hi]indazole], the IC50 in experiment [1] and in experiment [3] was < 10 nM each time.
`CC(=O)n1cc2c3c(cccc31)-c1n[nH]cc1N=C2c1c(F)cccc1F` [Compound 311, 1-(3-(2,6-difluorophenyl)pyrazolo[3′,4′:6,7]azepino[3,4,5-cd]indol-1(7H)-yl)ethan-1-one]: the IC50 in experiment [1] and in experiment [3] was 10 to 100 nM in each case.
Regarding `Cc1cn2c3c(cccc13)-c1n[nH]cc1N=C2c1c(F)cccc1F` [Compound 313, 10-(2,6-difluorophenyl)-7-methyl-3H-pyrazolo[4′,3′:4,5][1,3]diazepino[6,7,1-hi]indole], the IC50 was < 10 nM in experiment [1], 10 to 100 nM in experiment [2] and < 10 nM in experiment [3].
For the compound `Fc1cc2c3c(cnn3C(c3c(F)cccc3F)=Nc3c[nH]nc3-2)c1` [Compound 314, 4-(2,6-difluorophenyl)-10-fluoro-7H-pyrazolo[4′,3′:4,5][1,3]diazepino[6,7,1-hi]indazole], the IC50 in experiment [1], in experiment [4] and in experiment [3] was 100 to 1000 nM in each case.
`Fc1ccc(F)c(C2=Nc3c[nH]nc3-c3cccc4cnn2c34)c1` [Compound 315, 4-(2,5-difluorophenyl)-8H-pyrazolo[4′,3′:4,5][1,3]diazepino[6,7,1-hi]indazole]: the IC50 in experiment [1] is < 10 nM; in experiment [2], 10 to 100 nM; in experiment [3], < 10 nM.
Consider `Fc1ccccc1C1=Nc2c[nH]nc2-c2cccc3cnn1c23` [Compound 316, 4-(2-fluorophenyl)-8H-pyrazolo[4′,3′:4,5][1,3]diazepino[6,7,1-hi]indazole], for which the IC50 in experiment [1] and in experiment [3] was 10 to 100 nM throughout.
As for `Fc1cccc(F)c1C1=Nc2cn[nH]c2-c2ccc(F)c3cnn1c23` [Compound 317, 4-(2,6-difluorophenyl)-11-fluoro-8H-pyrazolo[4′,3′:4,5][1,3]diazepino[6,7,1-hi]indazole], the IC50 in experiment [1] was < 10 nM; in experiment [2], 10 to 100 nM; in experiment [3], < 10 nM.
As for `Fc1cc2ncccc2c(F)c1C1=Nc2cn[nH]c2-c2cnn3c2N1CC3` [Compound 404, 3-(5,7-difluoroquinolin-6-yl)-2,7-dihydro-1H-2a,4,6,7,9,9a-hexaazadicyclopenta[cd,f]azulene], the IC50 in experiment [5] was 10 to 100 nM.
On the same count and under the same terms, the result for `N#Cc1ccc(F)c(C2=Nc3cn[nH]c3-c3cc(C(F)(F)F)cc4[nH]cc2c34)c1F` [Compound 405, 2,4-difluoro-3-(9-(trifluoromethyl)-1,7-dihydropyrazolo[3′,4′:6,7]azepino[3,4,5-cd]indol-3-yl)benzonitrile] reads < 10 nM.
Same read-out and setting: the value for `OCc1cc(F)c(C2=Nc3cn[nH]c3-c3cc(C(F)(F)F)cc4[nH]cc2c34)c(F)c1` [Compound 406, (3,5-difluoro-4-(9-(trifluoromethyl)-1,7-dihydropyrazolo[3′,4′:6,7]azepino[3,4,5-cd]indol-3-yl)phenyl)methanol] was < 10 nM; that for `OCc1ccc(F)c(C2=Nc3cn[nH]c3-c3cc(C(F)(F)F)cc4[nH]cc2c34)c1F` [Compound 407, (2,4-difluoro-3-(9-(trifluoromethyl)-1,7-dihydropyrazolo[3′,4′:6,7]azepino[3,4,5-cd]indol-3-yl)phenyl)methanol] was < 10 nM; that for `COc1cc(F)c(C2=Nc3cn[nH]c3-c3cc(C(F)(F)F)cc4[nH]cc2c34)c(F)c1` [Compound 408] was 10 to 100 nM.
